Like-named read-outs stand apart in the source and are kept apart here.
Columns and labels:
[1] = biological target: T1, recombinant human STIM1 and Orai1 (Homo sapiens, UniProt Q96D31); test: Fluorescence-based assay of store-operated calcium entry in Orai1/STIM1 stable cells (FLIPR); format: cell-based; settings: HEK-293 cells stably expressing human Orai1/STIM1; Fluo-4; Peak-Basal signal; read-out: FLIPR_CRAC: 9 point CRC: O1S1_JR251: IC50: Peak_over_Basal
T1 construct: c-myc (C); expressed in transfected cells; host or cells: HEK-293 cells stably expressing human STIM1 and human Orai1
Experimental: A. Fluorescence-Based Assay of Store-Operated Calcium Entry in Orai1/Stim1 Stable Cells.
Cells stably expressing recombinant human STIM1 and Orai1 are generated by transfecting a human Orai1 expression plasmid (pcDNA3.1-Orai1-cmyc) into HEK-293 cells stably overexpressing human STIM1 (Roos et al. 2005 JCB 169(3): 435-445). Colonies of cells stably expressing both STIM1 and Orai1 proteins are selected and then subcloned by limiting dilution. Cells were cultured at 37° C./6% CO2 in complete medium with 10% FBS and appropriate selection markers.
The day prior to performing the assay Orai1/STIM1 stable cells are plated in 50 μL of complete medium at 90-95% confluence in a 384 well plate. Cells are grown at 37° C./6% CO2 overnight. On the day of the assay, 1.5 μM fluo-4-AM (Invitrogen) in complete medium is added to the cells, which are then incubated for 1 hour at RT. Cells are washed once in Ca^2+-free HBSS (Hank's buffered saline solution) and 35 μl of Ca^2+-free HBSS is added to each well. Test compounds are added to wells in a 10 μL Ca^2+-free HBSS solution, prepared at 4.5× the desired final concentration, and incubated for 30 minutes at RT. The initial baseline fluorescence signal is then measured with a FLIPR^384 (Molecular Devices) plate reader. Calcium entry is initiated by adding 5 μl of 10×CaCl2 (10 mM) in HBSS, and changes in cellular fluorescence are measured with the FLIPR^384 plate reader. In each well, the magnitude of the fluorescence signal as a result of calcium entry into the cell is determined by calculating the difference between the peak fluorescence signal measured after calcium addition and the initial baseline fluorescence signal (designated Peak-Basal). IC50 values are typically calculated as the concentration that inhibited 50% of the Peak-Basal signal.

[2] = system: secreted IL-2 in Jurkat T cells; test: In vitro assay of cytokine (IL-2) release from T cells; format: cell-based; settings: Jurkat E6-1 cells, PHA/TPA stimulation 20 hours, IL-2 ELISA
Experimental: In Vitro Assay of Cytokine Release from T Cells
Jurkat E6-1 cells are obtained from ATCC and maintained in complete medium with 10% FBS at 37° C./6% CO2.
The day prior to performing the assay, Jurkat T cells are plated in 90 μL of HBSS Buffer with 1.8 mM CaCl2 and 1.75% fetal bovine serum (FBS) in a 96 well plate at a density of 1.5×10^5 cells/well for 3 hours. 10 μl of 10× test compound prepared in HBSS is added and incubated for 10 minutes at 37° C./6% CO2. Cells are stimulated by the addition of 10 μl of 11×PHA/TPA (27.5 μg/mL PHA/880 nM TPA) and incubated at 37° C./6% CO2 for 20 hours. On the following day, the supernatants are collected and assayed for IL-2 levels by ELISA according to the manufacturer's protocols. The IC50 value is calculated as the concentration at which 50% of secreted IL-2 in vehicle treated cells is inhibited.

[3] = system: RBL-2H3 cells; test: Fluorescence-based assay of store-operated calcium entry in RBL-2H3 cells (FLIPR, thapsigargin); format: cell-based, rat; settings: Fluo-4, Upslope 0-7 sec, read-out: FLIPR_CRAC: 9 pt CRC - Fluo4_TG-D: RBL-2H3: IC50: Upslope 0-7 sec
Experimental: B. Fluorescence-Based Assay of Store-Operated Calcium Entry in RBL-2H3 Cells.
RBL-2H3 cells are obtained from ATCC and maintained in complete medium with 10% FBS at 37° C./6% CO2.
The day prior to performing the assay, RBL-2H3 cells are plated in 50 μl of complete medium in a 384 well plate. Cells are grown at 37° C./6% CO2 overnight and grow to 50-60% confluence by the next day. On the assay day, 1.5 μM Fluo-4-AM dye (Invitrogen) in complete medium is added and incubated for 1 hour at RT. Cells are washed twice in Ca^2+-free HBSS buffer and 35 μl Ca^2+-free HBSS buffer is added to each well. 10 μl of a test compound prepared in a Ca^2+-free HBSS solution at 4.5× of the desired concentration is added to a well and incubated for 5 minutes at RT. 10 μl of thapsigargin prepared in a Ca^2+-free HBSS solution at 5.5× of the desired concentration (5.5 uM) is added to each well and incubated for an additional 25 minutes. The initial baseline fluorescence signal is measured with a FLIPR^384 (Molecular Devices) plate reader. 5 μl of 12× calcium in HBSS (12 mM) is added and changes in cellular fluorescence are measured with the FLIPR^384 plate reader. In each well, the change in the fluorescent signal as a function of time due to calcium entry into the cell is determined by calculating the difference between the fluorescent signal measured 7 seconds after calcium addition and the initial baseline fluorescence signal at time zero (t=0). This parameter is designated Upslope. The IC50 value is calculated as the concentration at which 50% of the Upslope is inhibited.

T1 sequence (Q96D31 whole entry): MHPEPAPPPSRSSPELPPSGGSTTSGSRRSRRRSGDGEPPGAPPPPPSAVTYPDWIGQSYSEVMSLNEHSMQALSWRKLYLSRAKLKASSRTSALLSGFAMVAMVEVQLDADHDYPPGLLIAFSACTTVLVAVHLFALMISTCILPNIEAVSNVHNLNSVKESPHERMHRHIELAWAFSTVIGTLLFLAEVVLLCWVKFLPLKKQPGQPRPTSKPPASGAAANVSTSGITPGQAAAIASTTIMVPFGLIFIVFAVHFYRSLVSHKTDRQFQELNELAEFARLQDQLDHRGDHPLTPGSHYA

| Structure (SMILES) | IC50 [1] [nM] | IC50 ([2]; Homo sapiens) [nM] | IC50 ([3]; Rattus norvegicus) [nM] | IC50 [2] [nM] | IC50 [3] [nM] |
| --- | --- | --- | --- | --- | --- |
| Cn1nc(C(F)(F)F)cc1-c1cnc(NC(=O)c2c(F)cccc2F)s1 [Example 28, (2,6-difluorophenyl)-N-{5-[1-methyl-3-(trifluoromethyl)pyrazol-5-yl](1,3-thiazol-2-yl)}carboxamide] | < 600 | < 50 | < 600 | – | – |
| Cn1nc(-c2ccccc2)cc1-c1ccc(C(=O)Nc2ncc(Cl)cc2F)s1 [Example 46] | < 600 | < 50 | < 600 | – | – |
| Cc1nc(-c2cc(-c3cnc(NC(=O)c4ccccc4Cl)s3)n(C)n2)no1 [Example 48] | < 600 | – | – | > 100 | 600 to 1200 |
| Cn1nc(-c2nccs2)cc1-c1ccc(C(=O)Nc2ccccc2Cl)s1 [Example 55] | < 600 | < 50 | < 600 | – | – |
| Cn1nc(C(F)(F)F)cc1-c1ccc(NC(=O)c2c(F)cccc2F)s1 [Example 74, (2,6-difluorophenyl)-N-{5-[1-methyl-3-(trifluoromethyl)pyrazol-5-yl](2-thienyl)}carboxamide] | < 600 | < 50 | < 600 | – | – |
| Cc1cc2c(cc1-c1cnc(NC(=O)c3ccncc3F)s1)OC(F)(F)O2 [Example 82] | < 600 | < 50 | < 600 | – | – |
| Cc1cc2c(cc1-c1cnc(NC(=O)c3c(F)cccc3F)s1)OC(F)(F)O2 [Example 83, (2,6-difluorophenyl)-N-[5-(2,2-difluoro-6-methylbenzo[d]1,3-dioxolen-5-yl)(1,3-thiazol-2-yl)]carboxamide] | > 1200 | < 50 | < 600 | – | – |
| Cc1cc2c(cc1-c1cnc(NC(=O)c3ccccc3F)s1)OC(F)(F)O2 [Example 84] | < 600 | < 50 | < 600 | – | – |

Now from value to compound, other results behind:

| IC50 [1] [nM] | IC50 ([2]; Homo sapiens) [nM] | IC50 ([3]; Rattus norvegicus) [nM] | Structure (SMILES) | IC50 [2] [nM] | IC50 [3] [nM] |
| --- | --- | --- | --- | --- | --- |
| < 600 | < 50 | < 600 | Cn1nc(-c2ccccc2F)cc1-c1ccc(C(=O)Nc2c(F)cccc2F)s1 [Example 35, N-(2,6-difluorophenyl){5-[3-(2-fluorophenyl)-1-methylpyrazol-5-yl](2-thienyl)}carboxamide] | – | – |
| < 600 | > 100 | < 600 | Cn1nc(-c2ccccc2F)cc1-c1ccc(C(=O)Nc2ccccc2Cl)s1 [Example 41] | – | – |
| < 600 | < 50 | < 600 | Cn1nc(-c2ccccc2)cc1-c1ccc(C(=O)Nc2c(F)cccc2F)s1 [Example 42, N-(2,6-difluorophenyl)[5-(1-methyl-3-phenylpyrazol-5-yl](2-thienyl)}carboxamide] | – | – |
| < 600 | < 50 | < 600 | Cn1nc(-c2ccco2)cc1-c1ccc(C(=O)Nc2c(F)cccc2F)s1 [Example 56, N-(2,6-difluorophenyl)[5-(3-(2-furyl)-1-methylpyrazol-5-yl](2-thienyl)]carboxamide] | – | – |
| < 600 | < 50 | < 600 | Cn1nc(-c2ccco2)cc1-c1ccc(C(=O)Nc2ccccc2F)s1 [Example 61] | – | – |

From US9079891B2, “Compounds that modulate intracellular calcium” (CALCIMEDICA, INC., priority 2010, dated 2015)
